Results: paper PMC12583704 (Signal Transduction and Targeted Therapy, 2025)

Assay: Phase 1 study NCT03594422: adverse events graded by NCI CTCAE v4.03
Format: in vivo, human
Experimental: Part 1 was a dose-escalation study to determine the recommended phase 2 dose (RP2D) in solid tumors. […] The initial design was a 3 + 3 dose escalation from 20 mg, but the protocol was amended to randomly enroll and assign patients to starting doses of 30, 40, and 50 mg on the basis of safety data acquired in the CML trial.[20] […] An interactive web response system was used for randomization. Part 2 was a nonrandomized study focusing on patients with SDH-deficient GISTs. […] On the basis of preliminary data from adult patients, adolescent patients with advanced wild-type GISTs were also included in Part 2. The dosage for adolescents was adjusted according to their body weights.
AEs were evaluated at each follow-up visit: on Days 1, 8, 15, and 22 during Cycles 1 and 2; and on Days 1 and 15 in Cycle 3 and all subsequent cycles, up to 30 days after the final dose. All AEs were graded according to the National Cancer Institute Common Terminology Criteria for Adverse Events v4.03. Clinical laboratory investigations for routine blood examinations and serum chemistry parameters were performed during every cycle (on Day 1), during Cycles 1 and 2 (on Days 8, 15, and 22), and 30 days after the last dose of treatment. Urinalysis, coagulation, cardiac troponin I/T, lipase, amylase, and electrocardiographic evaluations were conducted at baseline; during Cycles 1 and 2 (on Days 1 and 15); during Cycles 3, 5, 7, and 9; every three cycles after Cycle 9 (on Day 1); and 14 days after the last dose of treatment. All patients underwent tumor imaging for response assessment via computed tomography or magnetic resonance imaging at screening and every two cycles (8 weeks) until progression or discontinuation. Target and nontarget lesions were assessed per the Response Evaluation Criteria in Solid Tumors version 1.1 (RECIST v1.1).

Cc1ccc(C(=O)Nc2ccc(CN3CCN(C)CC3)c(C(F)(F)F)c2)cc1C#Cc1cnc2[nH]ncc2c1 [Olverembatinib, 3-[(1H-pyrazolo[3,4-b]pyridin-5-yl)ethynyl]-4-methyl-N-{4-[(4-methylpiperazin-1-yl)methyl]-3-(trifluoromethyl)phenyl]benzamide]
TEAE: Abdominal pain (20 mg (n = 3), Any grade): 0 n (%)
TEAE: Alanine aminotransferase increased (20 mg (n = 3), Any grade): 0 n (%)
TEAE: Anemia (20 mg (n = 3), Any grade): 1 (33.3) n (%)
TEAE: Aspartate aminotransferase increased (20 mg (n = 3), Any grade): 0 n (%)
TEAE: C-reactive protein increased (20 mg (n = 3), Any grade): 0 n (%)
TEAE: Constipation (20 mg (n = 3), Any grade): 2 (66.7) n (%)
TEAE: Fatigue (20 mg (n = 3), Any grade): 0 n (%)
TEAE: Hyperuricemia (20 mg (n = 3), Any grade): 2 (66.7) n (%)
TEAE: Hypoalbuminemia (20 mg (n = 3), Any grade): 0 n (%)
TEAE: Leukocyte count increased (20 mg (n = 3), Any grade): 1 (33.3) n (%)
TEAE: Melanocytic nevus (20 mg (n = 3), Any grade): 0 n (%)
TEAE: Neutrophil count increased (20 mg (n = 3), Any grade): 1 (33.3) n (%)
TEAE: Pyrexia (20 mg (n = 3), Any grade): 0 n (%)
TEAEs (20 mg (n = 3), Any grade): 3 (100.0) n (%)
TRAE: ALT increased (20 mg (n = 3), Any grade): 0 n (%)
TRAE: AST increased (20 mg (n = 3), Any grade): 0 n (%)
TRAE: Anemia (20 mg (n = 3), Any grade): 0 n (%)
TRAE: Blood creatinine increased (20 mg (n = 3), Any grade): 0 n (%)
TRAE: Constipation (20 mg (n = 3), Any grade): 1 (33.3) n (%)
TRAE: Fatigue (20 mg (n = 3), Any grade): 0 n (%)
TRAE: Hypoalbuminemia (20 mg (n = 3), Any grade): 0 n (%)
TRAE: Leukocyte count increased (20 mg (n = 3), Any grade): 1 (33.3) n (%)
TRAE: Melanocytic nevus (20 mg (n = 3), Any grade): 0 n (%)
TRAE: Neutrophil count increased (20 mg (n = 3), Any grade): 1 (33.3) n (%)
TRAE: Platelet count increased (20 mg (n = 3), Any grade): 0 n (%)
TRAE: Pyrexia (20 mg (n = 3), Any grade): 0 n (%)
TEAE: Abdominal pain (20 mg (n = 3), Grade 3-5): 0 n (%)
TEAE: Alanine aminotransferase increased (20 mg (n = 3), Grade 3-5): 0 n (%)
TEAE: Anemia (20 mg (n = 3), Grade 3-5): 0 n (%)
TEAE: Aspartate aminotransferase increased (20 mg (n = 3), Grade 3-5): 0 n (%)
TEAE: C-reactive protein increased (20 mg (n = 3), Grade 3-5): 0 n (%)
TEAE: Constipation (20 mg (n = 3), Grade 3-5): 0 n (%)
TEAE: Fatigue (20 mg (n = 3), Grade 3-5): 0 n (%)
TEAE: Hyperuricemia (20 mg (n = 3), Grade 3-5): 0 n (%)
TEAE: Hypoalbuminemia (20 mg (n = 3), Grade 3-5): 0 n (%)
TEAE: Leukocyte count increased (20 mg (n = 3), Grade 3-5): 0 n (%)
TEAE: Melanocytic nevus (20 mg (n = 3), Grade 3-5): 0 n (%)
TEAE: Neutrophil count increased (20 mg (n = 3), Grade 3-5): 0 n (%)
TEAE: Pyrexia (20 mg (n = 3), Grade 3-5): 0 n (%)
TEAEs (20 mg (n = 3), Grade 3-5): 0 n (%)
TRAE: ALT increased (20 mg (n = 3), Grade 3-5): 0 n (%)
TRAE: AST increased (20 mg (n = 3), Grade 3-5): 0 n (%)
TRAE: Anemia (20 mg (n = 3), Grade 3-5): 0 n (%)
TRAE: Blood creatinine increased (20 mg (n = 3), Grade 3-5): 0 n (%)
TRAE: Constipation (20 mg (n = 3), Grade 3-5): 0 n (%)
TRAE: Fatigue (20 mg (n = 3), Grade 3-5): 0 n (%)
TRAE: Hypoalbuminemia (20 mg (n = 3), Grade 3-5): 0 n (%)
TRAE: Leukocyte count increased (20 mg (n = 3), Grade 3-5): 0 n (%)
TRAE: Melanocytic nevus (20 mg (n = 3), Grade 3-5): 0 n (%)
TRAE: Neutrophil count increased (20 mg (n = 3), Grade 3-5): 0 n (%)
TRAE: Platelet count increased (20 mg (n = 3), Grade 3-5): 0 n (%)
TRAE: Pyrexia (20 mg (n = 3), Grade 3-5): 0 n (%)
TEAE: Abdominal pain (30 mg (n = 15), Any grade): 5 (33.3) n (%)
TEAE: Alanine aminotransferase increased (30 mg (n = 15), Any grade): 6 (40.0) n (%)
TEAE: Anemia (30 mg (n = 15), Any grade): 8 (53.3) n (%)
TEAE: Aspartate aminotransferase increased (30 mg (n = 15), Any grade): 7 (46.7) n (%)
TEAE: C-reactive protein increased (30 mg (n = 15), Any grade): 3 (20.0) n (%)
TEAE: Constipation (30 mg (n = 15), Any grade): 5 (33.3) n (%)
TEAE: Fatigue (30 mg (n = 15), Any grade): 4 (26.7) n (%)
TEAE: Hyperuricemia (30 mg (n = 15), Any grade): 7 (46.7) n (%)
TEAE: Hypoalbuminemia (30 mg (n = 15), Any grade): 4 (26.7) n (%)
TEAE: Leukocyte count increased (30 mg (n = 15), Any grade): 8 (53.3) n (%)
TEAE: Melanocytic nevus (30 mg (n = 15), Any grade): 3 (20.0) n (%)
TEAE: Neutrophil count increased (30 mg (n = 15), Any grade): 6 (40.0) n (%)
TEAE: Pyrexia (30 mg (n = 15), Any grade): 5 (33.3) n (%)
TEAEs (30 mg (n = 15), Any grade): 15 (100.0) n (%)
TRAE: ALT increased (30 mg (n = 15), Any grade): 4 (26.7) n (%)
TRAE: AST increased (30 mg (n = 15), Any grade): 5 (33.3) n (%)
TRAE: Anemia (30 mg (n = 15), Any grade): 1 (6.7) n (%)
TRAE: Blood creatinine increased (30 mg (n = 15), Any grade): 3 (20.0) n (%)
TRAE: Constipation (30 mg (n = 15), Any grade): 4 (26.7) n (%)
TRAE: Fatigue (30 mg (n = 15), Any grade): 4 (26.7) n (%)
TRAE: Hypoalbuminemia (30 mg (n = 15), Any grade): 4 (26.7) n (%)
TRAE: Leukocyte count increased (30 mg (n = 15), Any grade): 6 (40.0) n (%)
TRAE: Melanocytic nevus (30 mg (n = 15), Any grade): 3 (20.0) n (%)
TRAE: Neutrophil count increased (30 mg (n = 15), Any grade): 6 (40.0) n (%)
TRAE: Platelet count increased (30 mg (n = 15), Any grade): 1 (6.7) n (%)
TRAE: Pyrexia (30 mg (n = 15), Any grade): 1 (6.7) n (%)
TEAE: Abdominal pain (30 mg (n = 15), Grade 3-5): 1 (6.7) n (%)
TEAE: Alanine aminotransferase increased (30 mg (n = 15), Grade 3-5): 0 n (%)
TEAE: Anemia (30 mg (n = 15), Grade 3-5): 1 (6.7) n (%)
TEAE: Aspartate aminotransferase increased (30 mg (n = 15), Grade 3-5): 0 n (%)
TEAE: C-reactive protein increased (30 mg (n = 15), Grade 3-5): 0 n (%)
TEAE: Constipation (30 mg (n = 15), Grade 3-5): 0 n (%)
TEAE: Fatigue (30 mg (n = 15), Grade 3-5): 0 n (%)
TEAE: Hyperuricemia (30 mg (n = 15), Grade 3-5): 1 (6.7) n (%)
TEAE: Hypoalbuminemia (30 mg (n = 15), Grade 3-5): 0 n (%)
TEAE: Leukocyte count increased (30 mg (n = 15), Grade 3-5): 0 n (%)
TEAE: Melanocytic nevus (30 mg (n = 15), Grade 3-5): 0 n (%)
TEAE: Neutrophil count increased (30 mg (n = 15), Grade 3-5): 0 n (%)
TEAE: Pyrexia (30 mg (n = 15), Grade 3-5): 0 n (%)
TEAEs (30 mg (n = 15), Grade 3-5): 5 (33.3) n (%)
TRAE: ALT increased (30 mg (n = 15), Grade 3-5): 0 n (%)
TRAE: AST increased (30 mg (n = 15), Grade 3-5): 0 n (%)
TRAE: Anemia (30 mg (n = 15), Grade 3-5): 0 n (%)
TRAE: Blood creatinine increased (30 mg (n = 15), Grade 3-5): 0 n (%)
TRAE: Constipation (30 mg (n = 15), Grade 3-5): 0 n (%)
TRAE: Fatigue (30 mg (n = 15), Grade 3-5): 0 n (%)
TRAE: Hypoalbuminemia (30 mg (n = 15), Grade 3-5): 0 n (%)
TRAE: Leukocyte count increased (30 mg (n = 15), Grade 3-5): 0 n (%)
TRAE: Melanocytic nevus (30 mg (n = 15), Grade 3-5): 0 n (%)
TRAE: Neutrophil count increased (30 mg (n = 15), Grade 3-5): 0 n (%)
TRAE: Platelet count increased (30 mg (n = 15), Grade 3-5): 0 n (%)
TRAE: Pyrexia (30 mg (n = 15), Grade 3-5): 0 n (%)
TEAE: Abdominal pain (40 mg (n = 32), Any grade): 7 (21.9) n (%)
TEAE: Alanine aminotransferase increased (40 mg (n = 32), Any grade): 13 (40.6) n (%)
TEAE: Anemia (40 mg (n = 32), Any grade): 14 (43.8) n (%)
TEAE: Aspartate aminotransferase increased (40 mg (n = 32), Any grade): 14 (43.8) n (%)
TEAE: C-reactive protein increased (40 mg (n = 32), Any grade): 8 (25.0) n (%)
TEAE: Constipation (40 mg (n = 32), Any grade): 13 (40.6) n (%)
TEAE: Fatigue (40 mg (n = 32), Any grade): 11 (34.4) n (%)
TEAE: Hyperuricemia (40 mg (n = 32), Any grade): 17 (53.1) n (%)
TEAE: Hypoalbuminemia (40 mg (n = 32), Any grade): 5 (15.6) n (%)
TEAE: Leukocyte count increased (40 mg (n = 32), Any grade): 15 (46.9) n (%)
TEAE: Melanocytic nevus (40 mg (n = 32), Any grade): 10 (31.3) n (%)
TEAE: Neutrophil count increased (40 mg (n = 32), Any grade): 12 (37.5) n (%)
TEAE: Pyrexia (40 mg (n = 32), Any grade): 17 (53.1) n (%)
TEAEs (40 mg (n = 32), Any grade): 32 (100.0) n (%)
TRAE: ALT increased (40 mg (n = 32), Any grade): 11 (34.4) n (%)
TRAE: AST increased (40 mg (n = 32), Any grade): 12 (37.5) n (%)
TRAE: Anemia (40 mg (n = 32), Any grade): 4 (12.5) n (%)
TRAE: Blood creatinine increased (40 mg (n = 32), Any grade): 5 (15.6) n (%)
TRAE: Constipation (40 mg (n = 32), Any grade): 13 (40.6) n (%)
TRAE: Fatigue (40 mg (n = 32), Any grade): 9 (28.1) n (%)
TRAE: Hypoalbuminemia (40 mg (n = 32), Any grade): 3 (9.4) n (%)
TRAE: Leukocyte count increased (40 mg (n = 32), Any grade): 12 (37.5) n (%)
TRAE: Melanocytic nevus (40 mg (n = 32), Any grade): 8 (25.0) n (%)
TRAE: Neutrophil count increased (40 mg (n = 32), Any grade): 9 (28.1) n (%)
TRAE: Platelet count increased (40 mg (n = 32), Any grade): 4 (12.5) n (%)
TRAE: Pyrexia (40 mg (n = 32), Any grade): 14 (43.8) n (%)
TEAE: Abdominal pain (40 mg (n = 32), Grade 3-5): 0 n (%)
TEAE: Alanine aminotransferase increased (40 mg (n = 32), Grade 3-5): 0 n (%)
TEAE: Anemia (40 mg (n = 32), Grade 3-5): 2 (6.3) n (%)
TEAE: Aspartate aminotransferase increased (40 mg (n = 32), Grade 3-5): 0 n (%)
TEAE: C-reactive protein increased (40 mg (n = 32), Grade 3-5): 0 n (%)
